Patent publication US8828695B2, “Method for producing butanol using two-phase extractive fermentation” (Butamax Advanced Biofuels LLC, priority 2008, dated 2014)

B1: sadB: butanol dehydrogenase from Achromobacter xylosoxidans (protein SEQ ID NO:10), expressed in E. coli Mach1/pTrc99a::sadB (protein)
chain: MKALVYHGDHKISLEDKPKPTLQKPTDVVVRVLKTTICGTDLGIYKGKNPEVADGRILGHEGVGVIEEVGESVTQFKKGDKVLISCVTSCGSCDYCKKQLYSHCRDGGWILGYMIDGVQAEYVRIPHADNSLYKIPQTIDDEIAVLLSDILPTGHEIGVQYGNVQPGDAVAIVGAGPVGMSVLLTAQFYSPSTIIVIDMDENRLQLAKELGATHTINSGTENVVEAVHRIAAEGVDVAIEAVGIPATWDICQEIVKPGAHIANVGVHGVKVDFEIQKLWIKNLTITTGLVNTNTTPMLMKVASTDKLPLKKMITHRFELAEIEHAYQVFLNGAKEKAMKIILSNAGAA
modifications: Achromobacter xylosoxidans

Experiments:
[1] = tested on: Saccharomyces cerevisiae BY4741; assay: Biocompatibility of solvents, shake flask studies (OD600 and glucose); assay type: cell-based; conditions: for Biocompatibility of the solvent (growth and glucose utilization versus control without solvent): S. cerevisiae BY4741, 25 mL solvent per 100 mL; for Glucose / OD600: 75 mL seed culture + 25 mL solvent, 30° C.
Method: The biocompatibility of each solvent was determined using shake flask studies with Saccharomyces cerevisiae BY4741 obtained from ATCC. Seed shake flasks containing 700 mL of yeast extract/peptone/dextrose (YPD) medium were inoculated with 200 μL of S. cerevisiae BY4741 inoculum and incubated overnight at 30° C. with shaking at 250 rpm until the OD600 reached about 0.5. Samples were withdrawn from the culture for measurement of OD600 using a spectrophotometer and glucose concentration using HPLC.
The resulting seed culture was divided into eight 125 mL flasks as follows. Into one flask, which served as a control, 100 mL of the seed culture was added. Into the remaining seven flasks, 75 mL of the seed culture and 25 mL of the solvent to be tested was added.

[2] = tested on: Saccharomyces cerevisiae BY4741; assay: Growth of Saccharomyces cerevisiae in the presence of isobutanol and oleyl alcohol (shake flask); assay type: cell-based
Method: The glucose consumption rate and the growth rate of wild-type Saccharomyces cerevisiae BY4741 strain were measured in shake flask cultures containing a high concentration of isobutanol in the presence of oleyl alcohol (Example 2) and the absence of oleyl alcohol (Example 3, Comparative).
Three seed shake flasks containing 600 mL of YPD medium were inoculated with 100, 300, and 1000 μL of Saccharomyces cerevisiae BY4741 inoculum, respectively. The flasks were incubated overnight at 30° C. with shaking at 250 rpm until the OD600 reached about 0.1. Samples were withdrawn from each culture and the OD600 and glucose concentration were measured as described above.
(§1) To a 125 mL flask was added 100 mL of the culture which was derived from the 300 μL inoculum (Example 3, Comparative). To another 125 mL flask was added 75 mL of the culture and 25 mL of oleyl alcohol (i.e., 25 vol %) (Example 2). The flasks were incubated at 30° C. with shaking at 100 rpm. Samples were withdrawn for OD600 and glucose measurement. When the OD600 reached about 0.4, isobutanol was added to both flasks to a final concentration of 30 g/L of the aqueous phase. A third flask containing 75 mL of the culture and 25 vol % of oleyl alcohol, but no added isobutanol, served as a positive control. Samples were withdrawn from all flasks at various times for the determination of OD600 and glucose concentration.

[3] = tested on: Lactobacillus plantarum strain PN0512; assay: Growth of Lactobacillus plantarum in the presence of isobutanol and oleyl alcohol (shake flask); assay type: cell-based
Method: The glucose consumption rate and the growth rate of Lactobacillus plantarum strain PN0512 were measured in shake flask cultures containing a high concentration of isobutanol in the presence of oleyl alcohol (Example 4) and the absence of oleyl alcohol (Example 5, Comparative).
Three seed shake flasks containing 50 mL of de Man-Rogosa-Sharpe (MRS) medium were inoculated with 200, 500, and 1000 μL, respectively, of Lactobacillus plantarum strain PN0512 inoculum (ATCC: PTA-7727, biological deposit made Jul. 12, 2006 for U.S. patent application Ser. No. 11/761,497). The flasks were incubated overnight at 30° C. with shaking at 250 rpm until the OD600 was between 2 and 5. A 1-L flask containing 600 mL of MRS medium was inoculated from one of the above seed flasks having an OD600=3 to an initial OD600=0.1 and cultivated at 30° C. with shaking at 180 rpm. After 4 to 5 hours of cultivation, the OD600 was between 0.5 and 1.0. Samples were withdrawn from each culture and the OD600 and glucose concentration were measured as described above.
as §1, with “culture” for “culture which was derived”, “above mentioned 1-L flask” for “300 μL inoculum”, “1.5,” for “0.4,”

[4] = Activity of the enzyme expressed from the sadB gene in cell-free extracts; assay type: biochemical, Achromobacter xylosoxidans; conditions: cell-free extracts of Mach1/pTrc99a::sadB, isobutyraldehyde as the standard
Method: The sadB coding region was then cloned into the vector pTrc99a (Amann et al., Gene 69: 301-315, 1988). The pCR4Blunt::sadB was digested with EcoRI, releasing the sadB fragment, which was ligated with EcoRI-digested pTrc99a to generate pTrc99a::sadB. This plasmid was transformed into E. coli Mach 1 cells and the resulting transformant was named Mach1/pTrc99a::sadB. The activity of the enzyme expressed from the sadB gene in these cells was determined to be 3.5 mmol/min/mg protein in cell-free extracts when analyzed using isobutyraldehyde as the standard.

[5] = Time 3 h after isobutanol addition
[6] = Time 4 h after isobutanol addition
[7] = Time 5 h after isobutanol addition
[8] = Time 14 h after isobutanol addition
[9] = 25 vol % oleyl alcohol, isobutanol 30 g/L
[10] = isobutanol 30 g/L in the absence of oleyl alcohol

Molecule | Biocompatibility of the solvent (growth and glucose utilization versus control without solvent) [1] | Glucose ([1]; t = 0) | OD600 ([1]; t = 0) | OD600 ([1]; t = 4) | Glucose ([1]; t = 2 h) | OD600 ([1]; t = 2 h) | Glucose ([1]; t = 6 h) | OD600 ([1]; t = 6 h) | Glucose ([1]; t = 24 h) | OD600 ([1]; t = 24 h) | Glucose ([1]; t = 4 h) | other results
CCCCCCCC/C=C\CCCCCCCC(=O)O [oleic acid] | biocompatible | 17.5 g/L | 0.5 | 1.7 | 19.0 g/L | 0.8 | 2.2 g/L | 2.8 | 0.0 g/L | 4.4 |  | 
CCCCCCCCCCO [Solvent 1-decanol, 1-decanol] | inhibited growth and glucose utilization | 17.5 g/L | 0.5 | 0.7 | 16.6 g/L | 0.5 | 17.8 g/L | 0.6 | 17.6 g/L | 0.8 | 17.0 g/L | 
CC(C)CO [Example 3, isobutanol] |  |  |  |  |  |  |  |  |  |  |  | Glucose ([2]; Time 0 h (isobutanol addition)): 18.9 g/L; OD600 ([2]; Time 0 h (isobutanol addition)): 0.4; Glucose [2, 5]: 17.5 g/L; OD600 [2, 5]: 0.6; Glucose [2, 6]: 17.7 g/L; OD600 [2, 6]: 0.7; Glucose [2, 7]: 17.4 g/L; OD600 [2, 7]: 0.6; Glucose [2, 8]: 17.4 g/L; OD600 [2, 8]: 0.6
CCCCCCCCCO [nonanol, 1-nonanol] | inhibited growth and glucose utilization | 17.5 g/L | 0.5 | 0.7 | 17.0 g/L | 0.5 | 18.1 g/L | 0.6 | 17.8 g/L | 0.7 | 16.9 g/L | 
CCCCCCCCCCCCO [Solvent 1-dodecanol, 1-dodecanol] | biocompatible | 17.5 g/L | 0.5 | 1.6 | 15.4 g/L | 0.9 | 3.9 g/L | 2.8 | 0.0 g/L | 4.2 | 11.6 g/L | 
CCCCCCCC/C=C\CCCCCCCCO [oleyl alcohol] | biocompatible | 17.5 g/L | 0.5 | 2.0 | 15.3 g/L | 1.0 | 3.4 g/L | 2.4 | 0.0 g/L | 3.5 | 10.4 g/L | Effect of oleyl alcohol on isobutanol toxicity [3, 9]: mitigates the toxicity of isobutanol; Effect of oleyl alcohol on isobutanol toxicity [2, 9]: mitigates the toxicity of isobutanol
CCCCCCCCC=O [Solvent 1-nonanal, 1-nonanal] | inhibited growth and glucose utilization | 17.5 g/L | 0.5 | 0.7 | 16.6 g/L | 0.7 | 17.8 g/L | 0.8 | 17.6 g/L | 1.8 | 17.0 g/L | 
CC(C)CO [Example 5, isobutanol] |  |  |  |  |  |  |  |  |  |  |  | Glucose ([3]; Time 0 h (isobutanol addition)): 12.7 g/L; OD600 ([3]; Time 0 h (isobutanol addition)): 5.7; Glucose [3, 5]: 11.7 g/L; OD600 [3, 5]: 6.8; Glucose [3, 6]: 11.7 g/L; OD600 [3, 6]: 6.9; Glucose [3, 7]: 11.7 g/L; OD600 [3, 7]: 7.2; Glucose [3, 8]: 11.6 g/L; OD600 [3, 8]: 5.3
CC(C)CO [isobutanol] |  |  |  |  |  |  |  |  |  |  |  | Effect on glucose utilization and biomass growth [3, 10]: almost completely inhibited glucose utilization and biomass growth; Effect on glucose utilization and biomass growth [2, 10]: almost completely inhibited glucose utilization and biomass growth
CCCCCCCC/C=C\CCCCCCCCO [Control, oleyl alcohol] |  |  |  |  |  |  |  |  |  |  |  | Glucose ([3]; Time 0 h (isobutanol addition)): 12.9 g/L; OD600 ([3]; Time 0 h (isobutanol addition)): 5.6; Glucose [3, 5]: 7.4 g/L; OD600 [3, 5]: 8.9; Glucose [3, 6]: 4.5 g/L; OD600 [3, 6]: 10.4; Glucose [3, 7]: 1.9 g/L; OD600 [3, 7]: 14.1; Glucose [3, 8]: 0 g/L; OD600 [3, 8]: 8.8; Glucose ([2]; Time 0 h (isobutanol addition)): 19.7 g/L; OD600 ([2]; Time 0 h (isobutanol addition)): 0.4; Glucose [2, 5]: 16.0 g/L; OD600 [2, 5]: 0.6; Glucose [2, 6]: 12.9 g/L; OD600 [2, 6]: 1.7; Glucose [2, 7]: 9.2 g/L; OD600 [2, 7]: 2.5; Glucose [2, 8]: 0.3 g/L; OD600 [2, 8]: 3.3
CCCCCCCC(=O)O [octanoic acid] | inhibited growth and glucose utilization | 17.5 g/L | 0.5 | 0.8 | 17.1 g/L | 0.9 | 19.2 g/L | 0.7 | 18.5 g/L | 1.0 | 17.6 g/L | 
B1 |  |  |  |  |  |  |  |  |  |  |  | activity of the enzyme expressed from the sadB gene [4]: 3.5 mmol/min/mg protein
